From patent publication US5916905A, “2,3-substituted pyridines for the treatment of inflammation” (G. D. Searle & Co., priority 1997, dated 1999)
pIC50: −log10 of the molar value.

Key:
COX-1 = biological target: T1, COX-1 (Homo sapiens, UniProt P23219); assay: COX-1 activity in vitro, recombinant human enzyme (PGE2 ELISA); type: biochemical; details: human (h); 10 μM arachidonic acid, 10-20 min pre-incubation; read-out: COX-1 ID50
T1 construct: A 2.0 kb fragment containing the coding region; made in house; host or cells: SF9 insect cells (baculovirus, pVL1393)
T1 sequence (P23219 24-599): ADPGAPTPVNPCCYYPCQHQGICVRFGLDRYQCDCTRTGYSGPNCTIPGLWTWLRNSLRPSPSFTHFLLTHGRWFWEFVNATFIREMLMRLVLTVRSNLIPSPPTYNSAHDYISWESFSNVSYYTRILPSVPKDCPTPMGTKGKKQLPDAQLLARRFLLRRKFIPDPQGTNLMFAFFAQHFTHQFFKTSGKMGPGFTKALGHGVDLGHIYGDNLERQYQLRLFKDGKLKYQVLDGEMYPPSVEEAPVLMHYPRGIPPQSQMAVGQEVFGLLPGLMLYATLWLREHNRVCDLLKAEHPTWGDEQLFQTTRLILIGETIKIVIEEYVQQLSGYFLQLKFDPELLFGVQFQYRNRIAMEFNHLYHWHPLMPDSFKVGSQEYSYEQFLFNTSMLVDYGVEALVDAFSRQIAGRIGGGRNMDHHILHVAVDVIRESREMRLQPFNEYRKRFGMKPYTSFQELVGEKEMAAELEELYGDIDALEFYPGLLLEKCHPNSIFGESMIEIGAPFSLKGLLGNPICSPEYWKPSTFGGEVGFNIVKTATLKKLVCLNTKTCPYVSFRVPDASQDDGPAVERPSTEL
Experimental: (§1) The COX-2 inhibition activity of the compounds of this invention illustrated in the Examples was determined by the following methods.
(§2) Recombinant COX-1 and COX-2 were prepared as described by Gierse et al, [J. Biochem., 305, 479-84 (1995)]. A 2.0 kb fragment containing the coding region of either human or murine COX-1 or human or murine COX-2 was cloned into a BamH1 site of the baculovirus transfer vector pVL1393 (Invitrogen) to generate the baculovirus transfer vectors for COX-1 and COX-2 in a manner similar to the method of D. R. O'Reilly et al (Baculovirus Expression Vectors: A Laboratory Manual (1992)). Recombinant baculoviruses were isolated by transfecting 4 μg of baculovirus transfer vector DNA into SF9 insect cells (2×10^8) along with 200 ng of linearized baculovirus plasmid DNA by the calcium phosphate method. See M. D. Summers and G. E. Smith, A Manual of Methods for Baculovirus Vectors and Insect Cell Culture Procedures, Texas Agric. Exp. Station Bull. 1555 (1987). Recombinant viruses were purified by three rounds of plaque purification and high titer (10^7 -10^8 pfu/ml) stocks of virus were prepared. For large scale production, SF9 insect cells were infected in 10 liter fermentors (0.5×10^6 /ml) with the recombinant baculovirus stock such that the multiplicity of infection was 0.1. After 72 hours the cells were centrifuged and the cell pellet homogenized in Tris/Sucrose (50 mM: 25%, pH 8.0) containing 1% 3-[(3-cholamidopropyl)dimethylammonio]-1-propanesulfonate (CHAPS). The homogenate was centrifuged at 10,000×G for 30 minutes, and the resultant supernatant was stored at -80° C. before being assayed for COX activity.
(§3) b. Assay for COX-1 and COX-2 activity COX activity was assayed as PGE2 formed/μg protein/time using an ELISA to detect the prostaglandin released. CHAPS-solubilized insect cell membranes containing the appropriate COX enzyme were incubated in a potassium phosphate buffer (50 mM, pH 8.0) containing epinephrine, phenol, and heme with the addition of arachidonic acid (10 μM). Compounds were pre-incubated with the enzyme for 10-20 minutes prior to the addition of arachidonic acid. Any reaction between the arachidonic acid and the enzyme was stopped after ten minutes at 37° C./room temperature by transferring 40 μl of reaction mix into 160 μl ELISA buffer and 25 μM indomethacin. The PGE2 formed was measured by standard ELISA technology (Cayman Chemical).

COX-2 = biological target: T2, COX-2 (Homo sapiens, UniProt P35354); assay: COX-2 activity in vitro, recombinant human enzyme (PGE2 ELISA); type: biochemical; details: human (h); 10 μM arachidonic acid, 10-20 min pre-incubation; read-out: COX-2 ID50
T2 construct: A 2.0 kb fragment containing the coding region; made in house; host or cells: SF9 insect cells (baculovirus, pVL1393)
T2 sequence (P35354 18-604): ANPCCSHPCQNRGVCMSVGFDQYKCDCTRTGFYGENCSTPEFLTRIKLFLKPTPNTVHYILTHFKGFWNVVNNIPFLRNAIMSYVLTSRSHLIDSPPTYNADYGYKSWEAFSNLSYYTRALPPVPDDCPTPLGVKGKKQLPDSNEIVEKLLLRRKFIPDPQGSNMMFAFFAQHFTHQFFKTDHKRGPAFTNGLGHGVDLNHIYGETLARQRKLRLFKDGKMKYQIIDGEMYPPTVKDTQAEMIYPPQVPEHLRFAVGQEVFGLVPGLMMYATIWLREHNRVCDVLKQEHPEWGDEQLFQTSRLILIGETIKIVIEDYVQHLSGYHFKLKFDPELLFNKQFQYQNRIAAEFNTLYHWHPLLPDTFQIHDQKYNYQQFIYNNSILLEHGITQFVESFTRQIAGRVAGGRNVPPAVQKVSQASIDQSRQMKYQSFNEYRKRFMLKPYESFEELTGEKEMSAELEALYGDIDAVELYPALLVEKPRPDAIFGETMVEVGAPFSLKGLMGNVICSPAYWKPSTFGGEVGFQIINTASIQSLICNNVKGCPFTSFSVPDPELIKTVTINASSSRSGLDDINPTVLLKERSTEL
Experimental: as §1, §2, §3

SMILES | pIC50 (COX-1) | pIC50 (COX-2)
CN(C)c1nc(-c2ccc(F)cc2)c(-c2ccc(S(C)(=O)=O)cc2)cc1C#N [Example 12, 2-(Dimethylamino)-6-(4-fluorophenyl)-5-[4-(methylsulfonyl)phenyl]pyridine-3-carbonitrile] | < 4.00 | 6.22
CNc1nc(-c2ccc(F)cc2)c(-c2ccc(S(C)(=O)=O)cc2)cc1C#N [Example 16, 6-(4-Fluorophenyl)-2-(methylamino)-5-[4-(methylsulfonyl)phenyl]pyridine-3-carbonitrile] | < 4.00 | 5.64
CCCCOc1nc(-c2ccc(F)cc2)c(-c2ccc(S(C)(=O)=O)cc2)cc1CNC(C)=O [Example 33] | < 4.00 | 5.85
CC(C)=CCOc1nc(-c2ccc(F)cc2)c(-c2ccc(S(C)(=O)=O)cc2)cc1C#N [Example 25] | < 4.00 | 7.00
CS(=O)(=O)c1ccc(-c2ccc(N=[N+]=[N-])nc2-c2ccc(F)cc2)cc1 [Example 6, 2-Azido-6-(4-fluorophenyl)-5-[4-(methylsulfonyl)phenyl]pyridine] | < 4.00 | 5.70
C=CCOc1nc(-c2ccc(F)cc2)c(-c2ccc(S(C)(=O)=O)cc2)cc1C#N [Example 17, 6-(4-Fluorophenyl)-5-[4-(methylsulfonyl)phenyl]-2-[(2-propenyl)oxy]pyridine-3-carbonitrile] | < 4.00 | > 7.00
CCCCOc1nc(-c2ccc(F)cc2)c(-c2ccc(S(C)(=O)=O)cc2)cc1CN(C)C [Example 37, 2-Butoxy-6-(4-fluorophenyl)-N,N-dimethyl-5-[4-(methylsulfonyl)phenyl]pyridine-3-methanamine] | < 4.00 | 6.10
CSc1ccc(-c2nc(SC)ccc2-c2ccc(S(C)(=O)=O)cc2)cc1 [Example 5, 5-[4-(Methylsulfonyl)phenyl]-2-methylthio-6-[4-(methylthio)phenyl]pyridine] | < 4.00 | > 7.00
CCCCOc1nc(-c2ccc(F)cc2)c(-c2ccc(S(C)(=O)=O)cc2)cc1CO [Example 29, 2-Butoxy-6-(4-fluorophenyl)-5-[4-(methylsulfonyl)phenyl]pyridine-3-methanol] | < 4.00 | > 7.00
CCCCOc1nc(-c2ccc(F)cc2)c(-c2ccc(S(N)(=O)=O)cc2)cc1C#N [Example 28, 4-[6-butoxy-4-cyano-2-(4-Fluorophenyl)-3-pyridine]benzenesulfonamide] | 6.70 | > 7.00
CCCCCOc1nc(-c2ccc(F)cc2)c(-c2ccc(S(C)(=O)=O)cc2)cc1C#N [Example 24, 6-(4-Fluorophenyl)-5-[4-(methylsulfonyl)phenyl]-2-pentoxypyridine-3-carbonitrile] | < 4.00 | > 7.00
CCCCOc1nc(-c2ccc(F)cc2)c(-c2ccc(S(C)(=O)=O)cc2)cc1C(C)OC(=O)CCC (racemic) [Example 44, (+/-) 1-[2-Butoxy-6-(4-fluorophenyl)-5-[4-(methylsulfonyl)phenyl]pyridin-3-yl]ethylbutanoate] | < 4.00 | 5.70
CSc1nc(-c2ccc(F)cc2)c(-c2ccc(S(C)(=O)=O)cc2)cc1C#N [Example 13, 6-(4-Fluorophenyl)-5-[4-(methylsulfonyl)phenyl]-2-(methylthio)pyridine-3-carbonitrile] | < 4.00 | 6.70
CS(=O)(=O)c1ccc(-c2cc(C#N)c(OCCCC(F)(F)F)nc2-c2ccc(F)cc2)cc1 [Example 27, 6-(4-Fluorophenyl)-5-[4-(methylsulfonyl)phenyl]-2-(4,4,4-trifluorobutoxy)pyridine-3-carbonitrile] | < 4.00 | 6.70
CCCCOc1nc(-c2ccc(F)cc2)c(-c2ccc(S(C)(=O)=O)cc2)cc1COC(C)=O [Example 39, 2-Butoxy-6-(4-fluorophenyl)-5-[4-(methylsulfonyl)phenyl]pyridine-3-methanol, acetate] | < 4.00 | 7.00
COc1ccc(-c2nc(OC)c(C#N)cc2-c2ccc(S(C)(=O)=O)cc2)cc1 [Example 11, 2-Methoxy-6-(4-methoxyphenyl)-5-[4-(methylsulfonyl)phenyl]pyridine-3-carbonitrile] | < 4.00 | 6.40
CCCCOc1nc(-c2ccc(F)cc2)c(-c2ccc(S(C)(=O)=O)cc2)cc1COC(=O)CCC [Example 40, [2-Butoxy-6-(4-fluorophenyl)-5-[4-(methylsulfonyl)phenyl]pyridin-3-yl]methylbutanoate] | < 4.00 | 7.00
CS(=O)(=O)c1ccc(-c2cc(C#N)c(OCc3ccccc3)nc2-c2ccc(F)cc2)cc1 [Example 15, 6-(4-Fluorophenyl)-5-[4-(methylsulfonyl)phenyl]-2-(phenylmethoxy)pyridine-3-carbonitrile] | < 4.00 | > 7.00
CCCCOc1nc(-c2ccc(F)cc2)c(-c2ccc(S(C)(=O)=O)cc2)cc1C#N [Example 14, 2-Butoxy-6-(4-fluorophenyl)-5-[4-(methylsulfonyl)phenyl]pyridine-3-carbonitrile] | < 4.00 | > 7.00
CCCCOc1nc(-c2ccc(F)cc2)c(-c2ccc(S(C)(=O)=O)cc2)cc1C(C)O (racemic) [Example 43, (+/-) 2-Butoxy-6-(4-fluorophenyl)-α-methyl-5-[4-(methylsulfonyl)phenyl]pyridine-3-methanol] | 4.55 | 7.00
CCCCOc1nc(-c2ccc(F)cc2)c(-c2ccc(S(C)(=O)=O)cc2)cc1C(F)F [Example 31, 2-Butoxy-3-difluoromethyl-6-(4-fluorophenyl)-5-[4-(methylsulfonyl)phenyl]pyridine] | < 4.00 | > 7.00
CCCCOc1nc(-c2ccc(F)cc2)c(-c2ccc(S(C)(=O)=O)cc2)cc1COC(=O)C(C)(C)C [Example 41, [2-Butoxy-6-(4-fluorophenyl)-5-[4-(methylsulfonyl)phenyl]pyridin-3-yl]methyl-2,2-propanoate] | < 4.00 | < 4.00
CS(=O)(=O)c1ccc(-c2ccc(Cl)nc2-c2ccc(F)cc2)cc1 [Example 1, 2-chloro-6-(4-fluorophenyl)-5-[4-(methylsulfonyl)phenyl]pyridine] | < 4.00 | 4.54
CCCCOc1nc(-c2ccc(F)cc2)c(-c2ccc(S(C)(=O)=O)cc2)cc1CNC [Example 42, 2-Butoxy-6-(4-fluorophenyl)-N-methyl-5-[4-(methylsulfonyl)phenyl]pyridine-3-methanamine] | < 4.00 | 5.52
CCCOc1nc(-c2ccc(F)cc2)c(-c2ccc(S(C)(=O)=O)cc2)cc1C#N [Example 10, 6-(4-Fluorophenyl)-5-[4-(methylsulfonyl)phenyl]-2-propoxypyridine-3-carbonitrile] | < 4.00 | 6.70
CCCCCCOc1nc(-c2ccc(F)cc2)c(-c2ccc(S(C)(=O)=O)cc2)cc1C#N [Example 18, 6-(4-Fluorophenyl)-2-hexyloxy-5-[4-(methylsulfonyl)phenyl]pyridine-3-carbonitrile] | < 4.00 | 6.70
CCCCOc1nc(-c2ccc(F)cc2)c(-c2ccc(S(C)(=O)=O)cc2)cc1CN [Example 32, 2-Butoxy-6-(4-fluorophenyl)-5-[4-(methylsulfonyl)phenyl]pyridine-3-methylamine] | < 4.00 | 5.80
